The source of these data is patent US4576934A, “Antihypertensive dihydropyridine-5-phosphonic acid cyclic esters” (Nissan Chemical Industries Ltd., priority 1983, dated 1986).

Structures can show the parent of a compound that is named as a salt.

Data set [1] deals with male spontaneously hypertensive rat (SHR). The experiment in a line: Antihypertensive effects: systolic blood pressure after oral administration to SHR, tail cuff method. The following applies: read-out: Antihypertensive effects, Maximum decrease (%). Format: in vivo. The protocol:
(2) Antihypertensive effects
After oral administration of the test compound dissolved in a H2 O-PEG 400 solvent mixture (H2 O:PEG 400 (w/w)=1:3) to the male spontaneously hypertensive rat (SHR), the systolic blood pressure was measured by a tail cuff method. Prior to the measurement, rats were warmed at 50° C. for five minutes.

Data set [2] relates to taenia caecum of guinea pig. The experiment in a line: Calcium antagonistic effects: relaxation of CaCl2-induced contraction of K+-depolarized taenia caecum. In kind it is cell-based. The conditions noted are these: Cavia porcellus, relative to maximum relaxation by 10^-4 M papaverine, 10 mM CaCl2, 37° C., read-out: pID50 (pID50 = -log [ID50]), concentration producing 50% relaxation (converted). On the procedure: (1) Calcium antagonistic effects
Then, the preparation was depolarized by a K^+ rich solution (NaCl: 40 mM, KCl: 100 mM). After 10-20 minutes equilibration period, 10 mM of CaCl2 was added to the bathing solution. The contraction was produced, and then the test compound applied cumulatively.

Data set [3] is described as follows: Acute toxicity test (LD50) in mice. The following applies: mouse, in vivo, male ddY mice, after seven days. On the procedure: Test 2: Acute toxicity test
ddY mice (.male., 4 weeks old) were divided into groups of five mice and the test compound dissolved in purified water was administered orally (5% solution) or intraperitoneally (1% solution) to the male ddY mice.
After seven days, LD50 values were calculated from the dead […] recorded in the individual dosage groups by the method of Litchfield-Wilcoxon.

By LD50 is commonly meant the dose at which mortality reaches 50%.

For `COc1ccc([C@@H]2Sc3ccccc3N(CCN(C)C)C(=O)[C@@H]2OC(C)=O)cc1` [Diltiazem, reference compound], the inhibition in vivo at 60 mg/kg in data set [1] (dose 60 mg/kg) worked out at 10%. Further, the EC50 in data set [2] is 275 nM.

As to `CC1=C(C(=O)OCCN(C)Cc2ccccc2)C(c2cccc([N+](=O)[O-])c2)C(P2(=O)OC(C)CCC(C)O2)=C(C)N1` (stereo not drawn) [Hydrochloride of Example 1], the inhibition in vivo at 20 mg/kg in data set [1] was determined as 50%. Further, in data set [2], the EC50 was 7.08 nM.

Take `CC1=C(C(=O)OCCN(C)Cc2ccccc2)C(c2ccccc2C(F)(F)F)C(P2(=O)OC(C)CCC(C)O2)=C(C)N1` (stereo not drawn) [Hydrochloride of Example 2]: the inhibition in vivo at 20 mg/kg in data set [1] came to 45%. Besides, the EC50 in data set [2] was 5.89 nM.

With `CC1=C(C(=O)OCCN(C)Cc2ccccc2)C(c2cccc(Cl)c2)C(P2(=O)OC(C)CCC(C)O2)=C(C)N1` (stereo not drawn) [Hydrochloride of Example 3], in data set [1], the inhibition in vivo at 10 mg/kg turned out to be 15%. Besides, the EC50 in data set [2] was 3.98 nM.

On to `CC1=C(C(=O)OCCN(C)Cc2ccccc2)C(c2ccccc2Cl)C(P2(=O)OC(C)CCC(C)O2)=C(C)N1` (stereo not drawn) [Hydrochloride of Example 4], for which the inhibition in vivo at 10 mg/kg in data set [1] came out at 15%. For the same compound, the EC50 in data set [2] was 4.9 nM.

For `CC1=C(C(=O)OCCN(C)Cc2ccccc2)C(c2cccc([N+](=O)[O-])c2)C(P2(=O)OC(C)CC(C)O2)=C(C)N1` (stereo not drawn) [Hydrochloride of Example 5], the inhibition in vivo at 20 mg/kg in data set [1] was 50%. In addition, the EC50 in data set [2] is 2.45 nM.

Regarding `CC1=C(C(=O)OCCN(C)Cc2ccccc2)C(c2ccccc2C(F)(F)F)C(P2(=O)OC(C)CC(C)O2)=C(C)N1` (stereo not drawn) [Hydrochloride of Example 6], in data set [1] (dose 5 mg/kg), the inhibition in vivo at 5 mg/kg is 37%. Also, the EC50 in data set [2] is 4.47 nM. Further, the LD50 at 168 h in data set [3] (ip, i.p. (1% solution)) was 17 mg/kg; in data set [3] (po, p.o. (5% solution)), 53 mg/kg.

Consider `CC1=C(C(=O)OCCN(C)Cc2ccccc2)C(c2cccc(Cl)c2)C(P2(=O)OC(C)CC(C)O2)=C(C)N1` (stereo not drawn) [Hydrochloride of Example 7], for which the inhibition in vivo at 20 mg/kg in data set [1] came to 49%. Also, in data set [2], the EC50 is 5.5 nM. For the same compound, the median lethal dose (LD50) at 168 h was 23 mg/kg in data set [3] (ip, i.p. (1% solution)) and 74 mg/kg in data set [3] (po, p.o. (5% solution)).

Turning to `CC1=C(C(=O)OCCN(C)Cc2ccccc2)C(c2ccccc2Cl)C(P2(=O)OC(C)CC(C)O2)=C(C)N1` (stereo not drawn) [Hydrochloride of Example 8], the inhibition in vivo at 10 mg/kg in data set [1] was found to be 47%. Further, in data set [2], the EC50 was 2.82 nM.

For the compound `CC1=C(C(=O)OCCN2CCN(C(c3ccccc3)c3ccccc3)CC2)C(c2cccc([N+](=O)[O-])c2)C(P2(=O)OC(C)CC(C)O2)=C(C)N1` (stereo not drawn) [Hydrochloride of Example 9], the inhibition in vivo at 20 mg/kg in data set [1] was determined as 36%. The EC50 in data set [2] is 29.5 nM.

In the case of `CC1=C(C(=O)OCCN2CCN(C(c3ccccc3)c3ccccc3)CC2)C(c2ccccc2C(F)(F)F)C(P2(=O)OC(C)CC(C)O2)=C(C)N1` (stereo not drawn) [Hydrochloride of Example 10], the inhibition in vivo at 20 mg/kg in data set [1] came to 46%. Further, in data set [2], the EC50 was 57.5 nM.

Turning to `CC1=C(C(=O)OCCN2CCN(C(c3ccccc3)c3ccccc3)CC2)C(c2ccccc2Cl)C(P2(=O)OC(C)CC(C)O2)=C(C)N1` (stereo not drawn) [Hydrochloride of Example 11], the inhibition in vivo at 10 mg/kg in data set [1] stood at 29%. In addition, the EC50 in data set [2] was 24.5 nM.

In the case of `CC1=C(C(=O)OCCN(C)Cc2ccccc2)C(c2cccc([N+](=O)[O-])c2)C(P2(=O)OCCC(C)O2)=C(C)N1` (stereo not drawn) [Hydrochloride of Example 12], in data set [1], the inhibition in vivo at 10 mg/kg was determined as 18%. Also, the EC50 in data set [2] was 2.57 nM.

Take `CC1=C(C(=O)OCCN(C)Cc2ccccc2)C(c2ccccc2C(F)(F)F)C(P2(=O)OCCC(C)O2)=C(C)N1` (stereo not drawn) [Hydrochloride of Example 13]: the inhibition in vivo at 10 mg/kg in data set [1] is 39%. Moreover, the EC50 in data set [2] was 12.3 nM.

Consider `CC1=C(C(=O)OCCN(C)Cc2ccccc2)C(c2cccc(Cl)c2)C(P2(=O)OCCC(C)O2)=C(C)N1` (stereo not drawn) [Hydrochloride of Example 14], for which the inhibition in vivo at 10 mg/kg in data set [1] came out at 14%. Also, in data set [2], the EC50 is 3.02 nM.

As to `CC1=C(C(=O)OCCN(C)Cc2ccccc2)C(c2ccccc2Cl)C(P2(=O)OCCC(C)O2)=C(C)N1` (stereo not drawn) [Hydrochloride of Example 15], the inhibition in vivo at 10 mg/kg in data set [1] was determined as 38%. For the same compound, the EC50 in data set [2] is 3.24 nM.

As to `CC1=C(C(=O)OCCN(C)Cc2ccccc2)C(c2cccc([N+](=O)[O-])c2)C(P2(=O)OCC(C)(C)CO2)=C(C)N1` (stereo not drawn) [Hydrochloride of Example 16], in data set [1], the inhibition in vivo at 10 mg/kg stood at 21%. The EC50 in data set [2] was 3.55 nM.

In the case of `CC1=C(C(=O)OCCN(C)Cc2ccccc2)C(c2ccccc2C(F)(F)F)C(P2(=O)OCC(C)(C)CO2)=C(C)N1` (stereo not drawn) [Hydrochloride of Example 17], the inhibition in vivo at 20 mg/kg in data set [1] amounted to 42%. In data set [2], the EC50 was 4.27 nM.

With `CC1=C(C(=O)OCCN(C)Cc2ccccc2)C(c2cccc(Cl)c2)C(P2(=O)OCC(C)(C)CO2)=C(C)N1` (stereo not drawn) [Hydrochloride of Example 18], the inhibition in vivo at 10 mg/kg in data set [1] came out at 17%. For the same compound, the EC50 in data set [2] was 4.47 nM.

For the compound `CC1=C(C(=O)OCCN(C)Cc2ccccc2)C(c2ccccc2Cl)C(P2(=O)OCC(C)(C)CO2)=C(C)N1` (stereo not drawn) [Hydrochloride of Example 19], in data set [1], the inhibition in vivo at 10 mg/kg came out at 30%. The EC50 in data set [2] was 5.13 nM.

For the compound `COC(=O)C1=C(C)NC(C)=C(P2(=O)OCCC(C)O2)C1c1ccccc1C(F)(F)F` (stereo not drawn) [Hydrochloride of Example 20], in data set [1], the inhibition in vivo at 20 mg/kg turned out to be 32%. The EC50 in data set [2] was 2.04 nM.

Consider `COC(=O)C1=C(C)NC(C)=C(P2(=O)OC(C)CC(C)O2)C1c1ccccc1C(F)(F)F` (stereo not drawn) [Hydrochloride of Example 21], for which the inhibition in vivo at 20 mg/kg in data set [1] came to 35%. For the same compound, the EC50 in data set [2] was 1.91 nM.

For `COC(=O)C1=C(C)NC(C)=C(C(=O)OCCN(C)Cc2ccccc2)C1c1cccc([N+](=O)[O-])c1` (stereo not drawn) [Nicardipine, reference compound], in data set [1], the inhibition in vivo at 20 mg/kg came out at 34%. For the same compound, in data set [2], the EC50 is 0.417 nM. Moreover, the median lethal dose (LD50) at 168 h in data set [3] (ip, i.p. (1% solution)) came out at 166 mg/kg; in data set [3] (po, p.o. (5% solution)), 561 mg/kg.

For `COC(=O)C1=C(C)NC(C)=C(C(=O)OC)C1c1ccccc1[N+](=O)[O-]` [Nifedipine, reference compound], the inhibition in vivo at 10 mg/kg in data set [1] was 26%. Moreover, the EC50 in data set [2] was 2.88 nM.
